Experimental data taken from patent publication US7026469B2, “Compositions and methods of double-targeting virus infections and cancer cells” (Wake Forest University School of Medicine, priority 2000, dated 2006).
Like-named read-outs stand apart in the source and are kept apart here.

Tests used:
[1] = test system: herpes simplex virus type 2; experiment: Herpes simplex virus type 2 plaque inhibition in Vero cells; format: cell-based
Protocol: Proof-of-concept of the antiviral activity of the double-targeting PC lipid-AZT conjugate compounds of the invention with respect to herpes simplex virus type 2 was evaluated and compared with that of PC lipid alone and with acyclovir (positive controls). Serial dilutions of PC lipid, PC lipid-AZT conjugate compound, or acyclovir were evaluated for inhibition of the formation of herpes simplex virus type 2 plaques in Vero cells and EC50 values were calculated from the results obtained. Briefly, the tests for anti-herpes simplex virus (HSV) activity and cytotoxicity of the compounds were performed by seeding 8×10^4 monkey kidney cells (Vero) per ml of D-MEM with 10% fetal bovine serum (FBS) in each well of a 12-well dish. The cultures were incubated at 37° C. to form a complete monolayer. To measure anti-HSV activity and effective concentration50 (EC50) each cell monolayer was infected with HSV diluted in PBS-A containing about 100 plaque forming units (PFU) per 0.1 ml. After virus attachment (1 hr., 37° C.) the infected monolayers were overlaid with E-MEM containing 2% FBS and 0.5% methyl cellulose with or without added serial concentrations of test compound. […] The EC50 values were calculated using a computer generated program.

[2] = test system: HIV-1 persistently infected H9IIIB cells; experiment: Induction of defective HIV-1 in persistently infected H9IIIB cells (RT activity after infecting fresh CEM-SS cells); format: cell-based; conditions: for DPM-Bkg: RT activity in CEM-SS overlay medium after 7 or 9 days, H9IIIB cells treated with 1.0 μM compound for 14 or 11 days; for % Inhibition: inhibition of RT activity as measure of defective virus formation, 1.0 μM compound, 14 or 11 days
Protocol: HIV-1 persistently infected H9IIIB cells were washed twice to remove extracellular HIV-1, resuspended in fresh growth medium with or without 1.0 μM of compound for a total of 14 days. During the treatment period, the cells were subcultured 1:3 three times a week. In addition, on days 3, 7 and 11, the cells were pelleted to remove extracellular HIV-1 before subculture in fresh growth medium with or without the compound. After 14 or 11 days of treatment, the virus was pelleted (100,000×g, 1 hr, 4 C.) from the overlay medium to remove free compound, resuspended in fresh medium without compound and assayed for RT activity. The virus suspension was normalized to 500,000 RT DPM and used to infect fresh CEM-SS cells. The infected CEM-SS cells were incubated for a total of 7 or 9 days, and the overlay medium was harvested and assayed for induction of RT activity. The % inhibition of RT activity was used as a measure of defective virus formation during the treatment period.

[3] = test system: monkey kidney cells (Vero); experiment: Cytotoxicity in Vero cell monolayers (cell morphology); format: cell-based; conditions: 48 hours at 37° C., lowest concentration changing morphology in at least 25% of the cells; for CC50: read-out: Cytotoxicity (TC50)
Protocol: To measure cytotoxicity of the compounds, the cell monolayers (described above) were treated with a serial concentration of test compound for 48 hours at 37° C. and visually examined after crystal violet staining by light microscopy for changes in cell morphology (cell rounding, shrinking, detachment) compared to an untreated control culture.

[4] = test system: AZT-resistant clinical isolates of HIV-1; experiment: microbe, parasite or virus in culture; format: cell-based; conditions: for Fold-Increase (G-762 to G-691): post-AZT G-691 versus pre-AZT G-762; for Fold-Increase (H112-2 to G-910): post-AZT G-910 versus pre-AZT H112-2; for EC50: mean of 2 to 4 independent tests
Protocol: (§1) The inhibitory effects of PC lipids, non-PC lipid-AZT conjugates, and double-targeting PC lipid-AZT conjugate compounds of the invention on replication of HIV-1 virus in cells was examined using the plaque assay procedure described in Kucera et al. (1990, AIDS Research and Human Retroviruses, 6:491). CEM-SS cells were seeded at 50,000 cells per milliliter in RPMI growth medium as a monolayer in 96-well dishes, inoculated with 50 to 100 plaque forming units of HIV-1 and overlaid with serial dilutions of either PC lipid, non-PC lipid-AZT conjugate, or PC-lipid-AZT conjugate in RPMI-1640 growth medium supplemented with 10% fetal bovine serum. The structures of the tested compounds are described in Table 1. AZT and PC lipids were used as positive controls. […] The cytotoxicity of PC lipids, non-PC lipid-AZT conjugates and double targeting PC lipid-AZT conjugates was assessed using the procedure described in Kucera et al. (1990, AIDS Res. And Human Retrovir., 6:496, and 1998, Antiviral Chemistry and Chemotherapy, 9:160). [drawing 16]
Evaluation of the clinical isolates to the compounds was performed using the plaque assay procedure described herein in Example 1. The matched pairs of clinical isolates were obtained through the AIDS Research and Reference Reagent Program, NIH, Bethesda, Md.

CEM-SS cells = experiment: Cytotoxicity (TC50) of the compounds tested for anti-HIV-1 activity; format: cell-based, human
Protocol: as §1

HIV-1 = HIV-1 syncytial plaque assay in CEM-SS cells; format: cell-based
Protocol: as §1
In the plaque assay, HIV-1 syncytial plaques are seen as large, multicellular foci (10 to 25 nuclei/syncytium) that appear either brown and granular or clear. Because the number of HIV-1 syncytial plaques was correlated with reverse transcriptase (RT) and p24 core antigen activity in the HIV-1 infected cell overlay fluids, the syncytial plaque assay could be used to quantify the amount of infectious virus. Reverse transcriptase activity was assayed according to the procedure described by Poeisz et al. (1980, Proc. Natl. Acad. Sci. U.S.A. 77:7415). The activity of p24 core antigen induced by HIV-1 infection of CEM-SS cells was measured spectrophotometrically using the commercial Coulter enzyme immunoassay (EIA).

[5] = Vero cells, 2 days at 37° C., replicate values in one cell, read-out: Anti-Herpes Simplex Activity (EC50)
[6] = post-AZT isolate, patient code G-691, read-out: EC50 Post-AZT G-691
[7] = post-AZT isolate, patient code G-910, read-out: EC50 Post-AZT G-910
[8] = pre-AZT isolate, patient code G-762, read-out: EC50 Pre-AZT G-762
[9] = pre-AZT isolate, patient code H112-2, read-out: EC50 Pre-AZT H112-2
[10] = plaques counted after five days at 37° C., CEM-SS cells, read-out: Anti-HIV-1 Activity (EC50)
[11] = acyclovir in replicate tests, read-out: EC50 against herpes simplex virus type 2

| SMILES | EC50 [1, 5] [nM] | DPM-Bkg [2] [DPM] | % Inhibition [2] [%] | Cytotoxicity (TC50) [3] | Fold-Increase (G-762 to G-691) [4] | Fold-Increase (H112-2 to G-910) [4] | EC50 [4, 6] [nM] | EC50 [4, 7] [nM] | EC50 [4, 8] [nM] | EC50 [4, 9] [nM] | CC50 (CEM-SS cells) [nM] | EC50 (HIV-1; [10]) [nM] | CC50 (CEM-SS cells; read-out: Cytotoxicity (TC50)) [nM] | CC50 [3] [nM] | fold increase in AZT-resistance among HIV-1 clinical isolates ([4]; text summary over both isolate pairs) | cytotoxicity (CEM-SS cells) [µM] | anti-HIV-1 activity relative to AZT (HIV-1; compared with AZT) | EC50 (HIV-1; read-out: anti-HIV-1 activity) [nM] | EC50 [1, 11] [nM] |
| --- | --- | --- | --- | --- | --- | --- | --- | --- | --- | --- | --- | --- | --- | --- | --- | --- | --- | --- | --- |
| CCCCCCCCCCCCSCC(COP(=O)([O-])OCC[N+](C)(C)C)OCCCCCCCCOCc1ccccc1 (centres unmarked) [INK-17, 3-dodecylthio-2-(8′-benzyloxyoctyloxy)propyl phosphocholine] | > 4000 | 2847 | 58 | toxic @ 4 | 0 | 5.1 | 180 | 200 | 260 | 40 | 49100 ± 13200 | 150 ± 130 | – | – | – | – | – | – | – |
| CCCCCCCCCCCCSCC(COP(=O)([O-])OCC[N+](C)(C)C)OCCCCCCCCO (centres unmarked) [INK-18, 3-dodeceylthio-2-(8′-hydroxyoctyloxy)propyl phosphophocholine] | – | 4195 | 38 | – | 0 | 1.8 | 600 | 1040 | > 1060 | 560 | – | 1920 ± 1800 | 50000 ± 42000 | – | – | – | – | – | – |
| CCCCCCCCCCCCSCC(COC(=O)CC(=O)OC[C@H]1O[C@@H](n2cc(C)c(=O)[nH]c2=O)C[C@@H]1N=[N+]=[N-])OC (some centres unmarked) [INK-19] | > 20000 | 2508 | 63 | – | 13.5 | >55.6 | 1620 | > 1700 | 120 | 30 | – | 6 ± 1 | 6300 ± 1100 | > 20000 | – | – | – | – | – |
| CCCCCCCCCCCCSCC(COP(=O)([O-])OCC[N+](C)(C)C)OCCCCCCCCC(=O)OCC(=O)OC[C@H]1O[C@@H](n2cc(C)c(=O)[nH]c2=O)C[C@@H]1N=[N+]=[N-] (some centres unmarked) [INK-20] | > 20000 | 2455 | 64 | toxic @ 20 | 18.6 | 22.0 | 740 | 440 | 40 | 20 | – | – | 6900 ± 600 | – | about 20 fold | 6.9 ± 0.6 | more than ten-fold higher than AZT | 0.9 | – |
| CCCCCCCCCCCCSCC(COP(=O)([O-])OCC[N+](C)(C)C)OCCCCCCCCCCOCc1ccccc1 (centres unmarked) [INK-21] | > 20000 | – | – | toxic @ 20 | – | – | – | – | – | – | – | 1500 ± 230 | 57300 ± 10800 | – | – | – | – | – | – |
| CCCCCCCCCCCCSCC(COP(=O)([O-])OCC[N+](C)(C)C)OCCCCCCCCCCO (centres unmarked) [INK-22] | > 20000 | – | – | toxic @ 20 | – | – | – | – | – | – | – | 390 ± 310 | > 90500 | – | – | – | – | – | – |
| CCCCCCCCCCCCSCC(COP(=O)([O-])OCC[N+](C)(C)C)OCCCCCCCCCCCCOCc1ccccc1 (centres unmarked) [INK-23] | > 20000 | – | – | – | – | – | – | – | – | – | – | > 1460 | > 100000 | > 20000 | – | – | – | – | – |
| CCCCCCCCCCCCSCC(COP(=O)([O-])OCC[N+](C)(C)C)OCCCCCCCCCCCCO (centres unmarked) [INK-24] | 13900 | 3087 | 33 | – | 0 | <1.0 | 80 | 250 | 190 | 370 | – | 390 ± 390 | 80600 ± 6200 | > 20000 | – | – | – | – | 13800 |
| CCCCCCCCCCCCSCC(COP(=O)([O-])OCC[N+](C)(C)C)OCCCCCCCCCCOC(=O)CC(=O)OC[C@H]1O[C@@H](n2cc(C)c(=O)[nH]c2=O)C[C@@H]1N=[N+]=[N-] (some centres unmarked) [INK-25] | > 20000 | 2140 | 54 | toxic @ 20 | 2 | 2.5 | 60 | 10 | 30 | 4 | – | 20 ± 10 | 13600 | – | – | – | – | – | – |
| CCCCCCCCCCCCSCC(COP(=O)([O-])OCC[N+](C)(C)C)OCCCCCCCCCCCCOC(=O)CC(=O)OC[C@H]1O[C@@H](n2cc(C)c(=O)[nH]c2=O)C[C@@H]1N=[N+]=[N-] (some centres unmarked) [INK-26] | – | 1793 | 61 | – | 20 | 1.5 | 60 | 30 | 3 | 20 | – | 20 ± 20 | 11600 | > 20000 | – | – | – | – | 12000 |
